Source: patent US20210393565A1, “PREPARATION FOR USE TO INCREASE THE FORMATION OF ONE OR MORE SPECIALIZED PRO-RESOLVING LIPID MEDIATORS (SPM)” (Evonik Operations GmbH, priority 2018, published 2021)

Tests used:
Assay type in all cases: cell-based
[1] = tested on: Bacillus megaterium DSM 32963 cells; assay: Lipidometabolomics (UPLC-MS/MS) of culture supernatants with AvailOm, dissolved or as dispersion; conditions: for Extracellular concentration of PUFA oxygenation product: − bile acids, net after subtraction of cell-free control
Text: (§1) Bacterial supernatant samples were subjected to lipid extraction using RP-phase solid phase extraction and subsequently analyzed by ultra performance liquid chromatography ESI tandem mass spectrometry (UPLC-MS/MS) according to a published procedure. Under these conditions approximately 40 different LM, including 5-hydroxy-eicosapentaenoic acid 5-HEPE, 8-HEPE, 11-HEPE, 12-HEPE, 15-HEPE, 18-HEPE, 5-hydroxy-eicosatetraenoic acid (5-HETE), 8-HETE, 11-HETE, 12-HETE, 15-HETE, 4-hydroxy-DHA (4-HDHA), 7-HDHA, 13-HDHA, 14-HDHA, 17-HDHA, lipoxin A4 (LXA4), LXB4, resolvin E1 (RvE1), RvE3, resolvin D1-5 (RvD1-5), AT-RvD1, RvD2, protectin D1 (PD1), AT-PD1, maresin 1(MaR1), MaR2, plus 4 fatty acid substrates can be detected with a lower limit of detection of 1 pg.
To investigate if Bacillus megaterium is capable of producing other PUFA oxygenation products in addition to 18-HEPE, a lipidometabolomics screening of supernatants from Bacillus megaterium strain 32963 cultured as in example 4 with AvailOm® was performed, either dissolved or in a dispersion formulation, with or without bile acids. Cell-free preparations of AvailOm® formulations were treated and analyzed in parallel and served as controls for non-enzymatic, spontaneous formation of oxygenation products. Values given in table 6 display net concentrations of products formed, i.e. after subtraction of control values. […] Concentrations of several SPM exceed by far the concentrations of SPM found in human plasma samples, which are typically in a range of ˜20-100 pg/ml. For comparison, human breast milk contains ˜6.000 pg/ml RvE1 and ˜10.000 pg/ml RvD1 [42].

[2] = tested on: Bacillus megaterium DSM 33296 cells; assay: Lipidometabolomics of culture supernatants with AvailOm dispersion formulation; conditions: Bacillus megaterium DSM 33296, AvailOm dispersion formulation; net concentration
Text: as §1
(§2) 47 additional Bacillus megaterium strains sourced from various habitats were screened for their SPM production capacity to determine if this is a general phenomenon of the species Bacillus megaterium and to detect strain-specific differences in types and quantities of SPM being produced. Cells were cultured as detailed in example 4, with dispersion formulation of AvailOm® serving as omega-3 fatty acid source. Cell-free preparations of AvailOm® were treated and analyzed in parallel and served as controls for non-enzymatic, spontaneous formation of oxygenation products. It was observed that all tested strains produced measurable (>1 pg/ml) amounts of various SPM and precursors thereof, that these amounts were hugely different between the strains (up to 2.000 fold), and that concentrations of RvE3 were particularly high (up to 1.3 μg/ml) in most of the strains.
(§3) Values given in table 7 display net concentrations of PUFA oxygenation products formed by two of the top performing strains, Bacillus megaterium DSM 33296 and Bacillus megaterium DSM 33299.

[3] = tested on: Bacillus megaterium DSM 33299 cells; assay: as above; conditions: Bacillus megaterium DSM 33299, AvailOm dispersion formulation; net concentration
Text: as §1, §2, §3

| Compound | Extracellular concentration of PUFA oxygenation product ([1]; AvailOm dispersion) [pg/mL] | Extracellular concentration of PUFA oxygenation product ([1]; AvailOm) [pg/mL] | Extracellular concentration of PUFA oxygenation product [2] [pg/mL] | Extracellular concentration of PUFA oxygenation product [3] [pg/mL] | abundance with dispersion formulation and/or bile acids compared to AvailOm without both (in words) [1] |
| --- | --- | --- | --- | --- | --- |
| CC/C=C\C[C@H](O)/C=C/C=C\C=C\C=C\[C@@H](O)[C@@H](O)CCCC(=O)O [LXA5, lipoxin A5] | 41263 | 7767 | 4693 | 128825 |  |
| 9-hydroxyoctadecadienoic acid [9-HODE] |  | 43 |  |  | lower |
| CC/C=C\C[C@@H](O)\C=C/C=C/C=C/[C@H](O)C/C=C\C/C=C\CCC(=O)O [AT-PD1 1, Aspirin-triggered PD1] | 247 | 96 | 4558 | 10317 |  |
| CCCCC[C@H](O)[C@H](O)/C=C/C=C/C=C\C=C\[C@@H](O)CCCC(=O)O [LXB4, lipoxin B4] | 76301 |  |  |  |  |
| CC/C=C\C/C=C\C[C@H](O)[C@H](O)/C=C/C=C/C=C\C/C=C\CCC(=O)O [MaR2, maresin 2] | 197 | 120 | 1522 | 1233 |  |
| CCC(O)/C=C/C=C\C/C=C\C/C=C\C/C=C\CCCC(=O)O (stereo not drawn) [18-HEPE, 18-hydroxy-eicosapentaenoic acid] |  | 24463 | 391397 | 217725 | lower |
| 12-hydroxy-eicosapentaenoic acid [12-HEPE] |  | 4413 | 124701 | 79699 | lower |
| CCCCC/C=C\C[C@@H](O)/C=C/C=C/C=C/[C@@H](O)CCCC(=O)O [t-LTB4] | 667 | 360 | 1780 | 4181 |  |
| CCCCC/C=C\C[C@@H](O)/C=C/C=C/C=C\[C@@H](O)CCCC(=O)O [LTB4, leukotriene B4] |  | 171 | 1769 | 2206 |  |
| CCCCC[C@H](O)/C=C/C=C\C=C\C=C\[C@@H](O)[C@@H](O)CCCC(=O)O [LXA4, lipoxin A4] |  |  | 1157 | 1430 |  |
| CC/C=C\C[C@H](O)[C@H](O)/C=C/C=C/C=C\C=C\[C@@H](O)C/C=C\CCC(=O)O [RvD2] | 99 | 87 | 265 | 428 |  |
| CC/C=C\CC(O)/C=C/C=C\C/C=C\C/C=C\CCCC(=O)O (stereo not drawn) [15-HEPE, 15-hydroxy-eicosapentaenoic acid] |  | 7536 | 256797 | 151168 | lower |
| CC/C=C\C/C=C\C/C=C\C/C=C\C=C\C(O)C/C=C\CCC(=O)O (stereo not drawn) [7-HDHA, 7-hydroxy-DHA] |  |  | 202129 | 243080 |  |
